Source: patent US20250346584A1, “NOVEL KAPPA OPIOID LIGANDS” (The Scripps Research Institute, priority 2012, published 2025)

target: kappa opioid receptor (OPRK1) (Homo sapiens (Human), UniProt P41145); assay: OPRK1 antagonist assay (b-arrestin-2-TEV / b-lactamase reporter cell line, EC80 U-50488 challenge); assay type: cell-based; conditions: read-out: IC50 nM (% inhib if other than 50%); antagonist mode vs EC80 U-50488; NA = not active at concentrations up to 10 μM
Sequence (P41145 whole entry): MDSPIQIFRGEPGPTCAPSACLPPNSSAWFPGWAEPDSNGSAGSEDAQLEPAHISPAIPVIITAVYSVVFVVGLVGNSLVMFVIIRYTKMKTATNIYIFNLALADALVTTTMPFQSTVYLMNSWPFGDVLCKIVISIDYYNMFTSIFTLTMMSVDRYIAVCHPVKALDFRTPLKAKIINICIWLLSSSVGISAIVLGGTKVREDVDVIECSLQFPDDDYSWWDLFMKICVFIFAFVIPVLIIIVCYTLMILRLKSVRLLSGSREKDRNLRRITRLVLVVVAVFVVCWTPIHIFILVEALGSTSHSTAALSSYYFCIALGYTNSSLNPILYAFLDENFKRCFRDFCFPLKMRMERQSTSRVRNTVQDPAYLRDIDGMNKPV

Row | Compound | IC50
1 | COC(=O)c1cccnc1N1CCC(NC2CCCCC2)C(O)C1 (centres unmarked) [compound 57] | 2200 nM
2 | COC(=O)c1cc(Br)cnc1N1CC(O)C(NC2CCCCC2)C(O)C1 (centres unmarked) [compound 62] | 2700 nM
3 | COC(=O)c1cc(Br)cnc1N1CCC(NC2CCCCC2)CC1C (centres unmarked) [compound 64] | 901 nM
4 | COC(=O)c1cc(Br)cnc1N1CCC(NC2CCCCC2CO)CC1 (centres unmarked) [compound 65] | 2300 nM
5 | COC(=O)c1cc(Br)cnc1N1CCCC(NC2CCCCC2)CC1 (centres unmarked) [compound 66] | 1700 nM
6 | COC(=O)c1cc(Br)cnc1N1CC(NC2CCCCC2)C1 [compound 67] | 1400 nM
7 | COC(=O)c1cc(F)cnc1N1CCC(NC2CCCCC2)CC1 [compound 72] | 6600 nM
8 | OCc1cc(Br)cnc1N1CCC(NC2CCCCC2)CC1 [compound 76] | 11300 nM
9 | COC(=O)c1cc(Br)cnc1N1CCC(NC2CC2)CC1 [compound 78] | 1200 nM
10 | COC(=O)c1cc(Br)cnc1N1CCC(N)C(O)C1 (centres unmarked) [compound 83] | 5900 nM
11 | COC(=O)c1cc([N+](=O)[O-])cnc1N1CCC(NC2CCCCC2)CC1 [compound 84] | 6200 nM
12 | COC(=O)c1cc(N)cnc1N1CCC(NC2CCCCC2)CC1 [compound 85] | 1800 nM
13 | COC(=O)c1cc(NC(C)=O)cnc1N1CCC(NC2CCCCC2)CC1 [compound 86] | 628 nM
14 | CNC(=O)c1cc(Br)cnc1N1CCC(NC2CCCCC2)CC1 [compound 87] | 19000 nM
15 | CCOC(=O)c1cc(C(=O)OC)c(C)nc1N1CCC(NC2CCCCC2)CC1 [compound 92] | 2600 nM
16 | CCOC(=O)c1cc(C(=O)OC)c(C)nc1N1CCC(NC2CCCCC2)C(CO)C1 (centres unmarked) [compound 93] | 621 nM
17 | CC(=O)c1cc(Br)cnc1N1CCC(NC2CCCCC2)CC1 [compound 96] | 6700 nM
18 | CC(=O)c1cc(Br)cnc1N1CCC(NC2CCCCC2)C(CO)C1 (centres unmarked) [compound 97] | 2000 nM
19 | COC(=O)c1cc([N+](=O)[O-])cnc1N1CCC(NC2CCCCC2)C(O)C1 (centres unmarked) [compound 98] | 1100 nM
20 | CC(=O)c1cc(Br)cnc1N1CCC(NC2CCCCC2)C(O)C1 (centres unmarked) [compound 99] | 4500 nM
21 | CCO/N=C/c1cc(Br)cnc1N1CCC(NC2CCCCC2)CC1 [compound 101] | 4000 nM

Row | Compound | IC50
22 | CCOC(=O)c1cc(C(=O)OC)c(C)nc1N1CCC(NC2CCCCC2)C1 (centres unmarked) [compound 104] | 2200 nM
23 | CCc1noc(-c2cc(Br)cnc2N2CCC(NC3CCCCC3)CC2)n1 [compound 107] | 11000 nM
24 | COC(=O)c1cc(Br)cnc1N1CCC(NC2CCCCC2)C(C(=O)OC)C1 (centres unmarked) [compound 113] | 2000 nM
25 | COC(=O)c1cc(Br)cnc1N1CCC(NC2CCCC2)C(C(=O)OC)C1 (centres unmarked) [compound 114] | 1200 nM
26 | COC(=O)c1cc(Br)cnc1N1CCC(NC2CCCCCC2)C(C(=O)OC)C1 (centres unmarked) [compound 115] | 1700 nM
27 | COC(=O)c1cc(Br)cnc1N1CCC(NC2CCCCC2)C(C(=O)OC)C1 (centres unmarked) [compound 116] | 793 nM
28 | COC(=O)c1cc(Br)cnc1N1CCC(NC2CCCC2)C(C(=O)OC)C1 (centres unmarked) [compound 117] | 3800 nM
29 | COC(=O)c1cc(Br)cnc1N1CCC(NC2CCCCCC2)C(C(=O)OC)C1 (centres unmarked) [compound 118] | 661 nM
30 | O=Cc1cc(Br)cnc1N1CC[C@@H](NC2CCCCC2)[C@H](O)C1 [compound 129] | 799 nM
31 | CC(C)OC(=O)c1cc(Br)cnc1N1CC[C@@H](NC2CCCCC2)[C@H](O)C1 [compound 135] | 1630 nM
32 | CCc1noc(-c2cc(Br)cnc2N2CC[C@@H](NC3CCCCC3)[C@H](O)C2)n1 [compound 137] | 1600 nM
33 | CN(C)C(=O)c1cc(Br)cnc1N1CC[C@@H](NC2CCCCC2)[C@H](O)C1 [compound 138] | 3200 nM
34 | CCN(CC)C(=O)c1cc(Br)cnc1N1CC[C@@H](NC2CCCCC2)[C@H](O)C1 [compound 139] | 4800 nM
35 | CC(=O)c1cc(Br)cnc1N1CCC(NC2CCCCC2)C(CO)C1 (centres unmarked) [compound 144] | 4800 nM
36 | COC(=O)c1cccnc1N1CC[C@@H](NC2CCCCC2)[C@H](O)C1 [compound 148] | 5800 nM
37 | COC(=O)c1cccnc1N1CCC(NC2CCCCC2)C(CO)C1 (centres unmarked) [compound 149] | 5400 nM
38 | O[C@@H]1CN(c2ncc(Br)cc2-c2nc(C3CC3)no2)CC[C@H]1NC1CCCCC1 [compound 150] | 9100 nM
39 | OCC1CN(c2ncc(Br)cc2-c2nc(C3CC3)no2)CCC1NC1CCCCC1 (centres unmarked) [compound 151] | 2100 nM
40 | Cc1noc(-c2cc(C3CC3)cnc2N2CC[C@@H](NC3CCCCC3)[C@H](O)C2)n1 [compound 155] | 1300 nM
41 | CCc1cnc(N2CC[C@@H](NC3CCCCC3)[C@H](O)C2)c(-c2nc(C)no2)c1 [compound 156] | 1000 nM

Stronger by IC50, values ahead:

Row | IC50 | Compound
42 | 419 nM | COC(=O)c1cc(Br)cnc1N1CCC(NC2CCCCC2C)C(O)C1 (centres unmarked) [compound 58]
43 | 36 nM | COC(=O)c1cc(Br)cnc1N1CCC(NC2CCCCC2OC)C(O)C1 (centres unmarked) [compound 59]
44 | 68 nM | COC(=O)c1cc(Br)cnc1N1CCC(NC2CCCCCC2)C(O)C1 (centres unmarked) [compound 60]
45 | 54 nM | COC(=O)c1cc(Br)cnc1N1CCC(NC2CCOCC2)C(O)C1 (centres unmarked) [compound 61]
46 | 234 nM | COC(=O)c1cc(Br)cnc1N1CCC(NC2CCCCC2)C(C)(C)C1 (centres unmarked) [compound 63]
47 | 40 nM | COC(=O)c1cc(Br)cnc1N1CCC(NC2CCCCC2)C(CO)C1 (centres unmarked) [compound 68]
48 | 53 nM | CCOC(=O)c1cc(Br)cnc1N1CCC(NC2CCCCC2)C(CO)C1 (centres unmarked) [compound 69]
49 | 110 nM | COC(=O)c1cc(Cl)cnc1N1CCC(NC2CCCCC2)C(CO)C1 (centres unmarked) [compound 70]
50 | 93 nM | CCOC(=O)c1cc(Cl)cnc1N1CCC(NC2CCCCC2)C(CO)C1 (centres unmarked) [compound 71]
51 | 205 nM | COC(=O)c1cc(Br)cnc1N1CCC(NC2CCCCC2)C(OC)C1 (centres unmarked) [compound 73]
52 | 58 nM | COC(=O)c1cc(Br)cnc1N1CCC(NC2CCCCCC2)C(CO)C1 (centres unmarked) [compound 74]
53 | 36 nM | COC(=O)c1cc(I)cnc1N1CCC(NC2CCCCCC2)C(CO)C1 (centres unmarked) [compound 75]
54 | 11 nM | COC(=O)c1cc(I)cnc1N1CCC(NC2CCCCC2)C(CO)C1 (centres unmarked) [compound 77]
55 | 25 nM | COC(=O)c1cc(Br)cnc1N1CCC(NC2CCCC2)C(CO)C1 (centres unmarked) [compound 79]
56 | 87 nM | COC(=O)c1cc(Br)cnc1N1CCC(NC2CCCCC2C)C(CO)C1 (centres unmarked) [compound 80]
57 | 126 nM | COC(=O)c1cc(Br)cnc1N1CCC(NC2CCOCC2)C(CO)C1 (centres unmarked) [compound 81]
58 | 127 nM | COC(=O)c1cc(Br)cnc1N1CCC(NC2CCCCC2OC)C(CO)C1 (centres unmarked) [compound 82]
59 | 52 nM | COC(=O)c1cc(I)cnc1N1CCC(NC2CCCC2)C(CO)C1 (centres unmarked) [compound 88]
60 | 116 nM | COC(=O)c1cc(I)cnc1N1CCC(NC2CCCCC2C)C(CO)C1 (centres unmarked) [compound 89]
61 | 186 nM | COC(=O)c1cc(I)cnc1N1CCC(NC2CCOCC2)C(CO)C1 (centres unmarked) [compound 90]
62 | 198 nM | COC(=O)c1cc(I)cnc1N1CCC(NC2CCCCC2OC)C(CO)C1 (centres unmarked) [compound 91]
63 | 61 nM | CCOC(=O)c1cc(C(=O)OC)c(C)nc1N1CCC(NC2CCCCC2)C(O)C1 (centres unmarked) [compound 94]
64 | 1.4 nM | CCCC(=O)Nc1cnc(N2CCC(NC3CCCCC3)CC2)c(C(=O)OC)c1 [compound 95]
65 | 24 nM | COC(=O)c1cc(I)cnc1N1CC[C@@H](NC2CCCCC2)[C@H](O)C1 [compound 106]

Row | IC50 | Compound
66 | 404 nM | COC(=O)c1cc(C)cnc1N1CCC(NC2CCCCC2)CC1 [compound 108]
67 | 198 nM | COC(=O)c1cc(C)cnc1N1CCC(NC2CCCCC2)C(CO)C1 (centres unmarked) [compound 109]
68 | 108 nM | COC(=O)c1cc(C)cnc1N1CCC(NC2CCCCC2)C(O)C1 (centres unmarked) [compound 110]
69 | 281 nM | COC(=O)c1cc(Cl)cnc1N1CC[C@H](NC2CCCCC2)[C@@H](O)C1 [compound 111]
70 | 12 nM | CCOC(=O)c1cc(C(=O)OC)c(C)nc1N1CC[C@@H](NC2CCCCC2)[C@H](O)C1 [compound 119]
71 | 125 nM | COC(=O)c1cc(Br)cnc1N1CCC(NC2CCCCC2)C(OC)C1 (centres unmarked) [compound 122]
72 | 11 nM | COC(=O)c1cc(I)cnc1N1CCC(NC2CCCCC2)C(OC)C1 (centres unmarked) [compound 123]
73 | 112 nM | COC(=O)c1cc(I)cnc1N1CCC(NC2CCCCC2)C(O)C1 (centres unmarked) [compound 126]
74 | 33 nM | CC(=O)c1cc(Br)cnc1N1CC[C@@H](NC2CCCCC2)[C@H](O)C1 [compound 127]
75 | 35 nM | COC(=O)c1cc(C)cnc1N1CC[C@@H](NC2CCCCC2)[C@H](O)C1 [compound 128]
76 | 272 nM | CCc1cnc(N2CCC(NC3CCCCC3)C(O)C2)c(C(=O)OC)c1 (centres unmarked) [compound 133]
77 | 23 nM | CCOC(=O)c1cc(Br)cnc1N1CC[C@@H](NC2CCCCC2)[C@H](O)C1 [compound 134]
78 | 49 nM | Cc1noc(-c2cc(Br)cnc2N2CC[C@@H](NC3CCCCC3)[C@H](O)C2)n1 [compound 136]
79 | 100 nM | COC1CN(c2ncc(Br)cc2-c2nc(C)no2)CCC1NC1CCCCC1 (centres unmarked) [compound 143]
80 | 117 nM | Cc1noc(-c2cc(Br)cnc2N2CCC(NC3CCCCC3)C(CO)C2)n1 (centres unmarked) [compound 145]
81 | 85 nM | CCOC(=O)c1cc(Br)cnc1N1CCC(NC2CCCCC2)C(OC)C1 (centres unmarked) [compound 146]
82 | 30 nM | Cc1cnc(N2CCC(NC3CCCCC3)C(CO)C2)c(-c2nc(C)no2)c1 (centres unmarked) [compound 152]
83 | 191 nM | CCOC(=O)c1cc(C)c(C)nc1N1CC[C@@H](NC2CCCCC2)[C@H](O)C1 [compound 153]
84 | 146 nM | Cc1noc(-c2cc(C)c(C)nc2N2CC[C@@H](NC3CCCCC3)[C@H](O)C2)n1 [compound 154]
85 | 37 nM | COC(=O)c1cc2ccccc2nc1N1CCC(NC2CCCCC2)C(CO)C1 (centres unmarked) [compound 157]
86 | 431 nM | COC(=O)c1cc2ccccc2nc1N1CCC(NC2CCCCC2)C(OC)C1 (centres unmarked) [compound 158]
87 | 35 nM | CCOC(=O)c1cc(C)c(C)nc1N1CCC(NC2CCCCC2)C(CO)C1 (centres unmarked) [compound 159]
88 | 209 nM | COC(=O)c1cc2ccccc2nc1N1CC[C@@H](NC2CCCCC2)[C@H](O)C1 [compound 160]
89 | 157 nM | COC(=O)c1cc(C)c(C)nc1N1CC[C@@H](NC2CCCCC2)[C@H](O)C1 [compound 161]
